Measured values reported in ChEMBL document CHEMBL5375966, “Exploiting the "Hot-Spots" of Hsp70-Bim Protein-Protein Interaction to Optimize the 1-Oxo-1H-phenalene-2,3-dicarbonitrile Analogues as Specific Hsp70-Bim Inhibitors” (J Med Chem, 2023).
Active and inactive are the calls of the source. The calls are words filed in the database; no cut-off is given here.

Experiments:
[1] = Inhibition of Fam-labeled BimBH3 peptide binding to N-terminal 6His-tagged human recombinant HSP70 NBD (1 to 383 residues) expressed in Escherichia coli BL21 (DE3) assessed as inhibition constant incubated for 24 hrs by fluorescence polarization assay
[2] = Inhibition of Bim (unknown origin)- N-terminal 6His-tagged human recombinant HSP70 NBD (1 to 383 residues) expressed in Escherichia coli BL21 (DE3) protein protein interaction assessed as suppression of BimBH3-stimulated HSP70 ATPase activity
HEK293 = assay: Induction of apoptosis in human HEK293 cells assessed as apoptotic rate at 15 uM incubated for 24 hrs by annexin V/PI staining based flow cytometry analysis relative to control; assay type: toxicity, cell-based; conditions: hek293, 24 h
BaF3 = assay: Induction of apoptosis in mouse BaF3 cells assessed as apoptotic rate at 15 uM incubated for 24 hrs by annexin V/PI staining based flow cytometry analysis relative to control; assay type: toxicity, cell-based; conditions: baf3, 24 h
[3] = Induction of apoptosis in human Imatinib-resistant K562-R3 cells incubated for 24 hrs by annexin V/PI staining based flow cytometry analysis; assay type: functional; conditions: Imatinib-resistant K562-R3 cell
K562 [4] = assay: Induction of apoptosis in human K562 cells incubated for 24 hrs by annexin V/PI staining based flow cytometry analysis; assay type: functional, cell-based; conditions: K562, 24 h
BV-173 = assay: Induction of apoptosis in human BV-173 cells incubated for 24 hrs by annexin V/PI staining based flow cytometry analysis; assay type: functional, cell-based; conditions: BV-173, 24 h
K562 [5] = assay: Inhibition of HSP70-Bag3 protein protein interaction in human K562 cells at 10 uM incubated for 12 hrs by Co-IP analysis; assay type: cell-based
Mus musculus [6] = assay: (§1) In vivo disruption of HSP70-Bim protein protein interaction in BALB/c nu/nu mouse xenografted with Bcr-Abl independent human Imatinib-resistant K562-R1 cells assessed as destabilization of AKT protein level at 2 mg/kg, ip administered every day for 14 days and measured on day 15 by immunoblot analysis; assay type: functional, organism-based; conditions: time 15.0 day
[7] = AUCt in Sprague-Dawley rat at 3 mg/kg, iv measured upto 24 hrs by LC-MS/MS analysis; assay type: ADME, organism-based; set-up: time < 24 hrs, dose 3 mg/kg, route iv; conditions: in vivo
[8] = Inhibition of Fam-labeled BimBH3 peptide binding to N-terminal 6His-tagged human recombinant HSP70 NBD (1 to 383 residues) Y149A mutant expressed in Escherichia coli BL21 (DE3) assessed as dissociation constant incubated for 24 hrs by fluorescence polarization assay
[9] = test system: Imatinib-resistant K562-R1; assay: Antitumor activity against Bcr-Abl independent human Imatinib-resistant K562-R1 cells xenografted in BALB/c nu/nu mouse assessed as reduction in tumor growth at 2 mg/kg, ip administered every day for 14 days and measured on day 15; assay type: functional, organism-based; conditions: time 15.0 day
K562 [10] = assay: Inhibition of HSP70-Bim protein protein interaction in human K562 cells assessed as decrease in AKT phosphorylation at 2 uM incubated for 12 hrs by Western blot analysis; assay type: cell-based
K562 [11] = assay: Induction of apoptosis in HSP70 shRNA transfected human K562 cells assessed as increase in cleaved PARP level at 2 uM incubated for 24 hrs by Western blot analysis; assay type: functional, cell-based
Mus musculus [12] = assay: In vivo disruption of HSP70-Bim protein protein interaction in BALB/c nu/nu mouse xenografted with Bcr-Abl independent human Imatinib-resistant K562-R1 cells at 2 mg/kg, ip administered every day for 14 days and measured on day 15 by Co-IP analysis; assay type: functional, organism-based; conditions: time 15.0 day
[13] = Inhibition of Fam-labeled BimBH3 peptide binding to N-terminal 6His-tagged human recombinant HSP70 NBD (1 to 383 residues) D225T mutant expressed in Escherichia coli BL21 (DE3) assessed as inhibition constant incubated for 24 hrs by fluorescence polarization assay
K562 [14] = assay: Inhibition of HSP70-Bim protein protein interaction in human K562 cells incubated for 12 hrs by Co-IP analysis; assay type: cell-based; conditions: dose 0-5 µM
K562 [15] = assay: Inhibition of HSP70-Bim protein protein interaction in human K562 cells assessed as decrease in AKT protein expression at 2 uM incubated for 12 hrs by Western blot analysis; assay type: cell-based
K562 [16] = assay: Inhibition of HSP70-Bim protein protein interaction in human K562 cells assessed as decrease in EIF4e phosphorylation at 2 uM incubated for 12 hrs by Western blot analysis; assay type: cell-based
[17] = Antitumor activity against Bcr-Abl independent human Imatinib-resistant K562-R1 cells xenografted in BALB/c nu/nu mouse assessed as reduction in tumor weight by measuring T/C ratio at 2 mg/kg, ip administered every day for 14 days and measured on day 15; assay type: functional; conditions: time 14 day
Mus musculus [18] = assay: as §1, with “EIF4e” for “AKT”; assay type: functional, organism-based; conditions: time 15.0 day
K562 [19] = assay: Induction of apoptosis in Bim shRNA transfected human K562 cells assessed as increase in cleaved PARP level at 2 uM incubated for 24 hrs by Western blot analysis; assay type: functional, cell-based
K562 [20] = assay: Induction of apoptosis in Bim shRNA transfected human K562 cells assessed as increase in Annexin V+ cells at 2 uM incubated for 24 hrs by Annexin V/PI staining based flow cytometry analysis; assay type: functional, cell-based
[21] = Toxicity in BALB/c nu/nu mouse xenografted with Bcr-Abl independent human Imatinib-resistant K562-R1 cells assessed as reduction in body weight at 2 mg/kg, ip administered every day for 14 days and measured every 3 days; assay type: organism-based; conditions: in vivo, 336 h, time 14 day
[22] = Clearance in Sprague-Dawley rat at 3 mg/kg, iv measured upto 24 hrs by LC-MS/MS analysis; assay type: ADME, organism-based; conditions: in vivo
[23] = Inhibition of Fam-labeled BimBH3 peptide binding to wild type N-terminal 6His-tagged human recombinant HSP70 NBD (1 to 383 residues) expressed in Escherichia coli BL21 (DE3) assessed as dissociation constant incubated for 24 hrs by fluorescence polarization assay
K562 [24] = assay: Inhibition of HSP70-Bim protein protein interaction in human K562 cells assessed as decrease in EIF4e protein expression at 2 uM incubated for 12 hrs by Western blot analysis; assay type: cell-based
K562 [25] = assay: Induction of apoptosis in HSP70 shRNA transfected human K562 cells assessed as increase in Annexin V+ cells at 2 uM incubated for 24 hrs by Annexin V/PI staining based flow cytometry analysis; assay type: functional, cell-based
[26] = Cmax in Sprague-Dawley rat at 3 mg/kg, iv measured upto 24 hrs by LC-MS/MS analysis; assay type: ADME, organism-based; set-up: dose 3 mg/kg, time < 24 hrs, route iv; conditions: in vivo
[27] = Inhibition of Fam-labeled BimBH3 peptide binding to N-terminal 6His-tagged human recombinant HSP70 NBD (1 to 383 residues) Y149A mutant expressed in Escherichia coli BL21 (DE3) assessed as inhibition constant incubated for 24 hrs by fluorescence polarization assay
[28] = Tmax in Sprague-Dawley rat at 3 mg/kg, iv measured upto 24 hrs by LC-MS/MS analysis; assay type: ADME, organism-based; conditions: in vivo
[29] = Inhibition of Fam-labeled BimBH3 peptide binding to N-terminal 6His-tagged human recombinant HSP70 NBD (1 to 383 residues) D225T mutant expressed in Escherichia coli BL21 (DE3) assessed as dissociation constant incubated for 24 hrs by fluorescence polarization assay
[30] = Half life in Sprague-Dawley rat at 3 mg/kg, iv measured upto 24 hrs by LC-MS/MS analysis; assay type: ADME, organism-based; conditions: in vivo
Homo sapiens = species: Homo sapiens; assay: Inhibition of N-terminal 6His-tagged human recombinant HSP70 NBD (1 to 383 residues) expressed in Escherichia coli BL21 (DE3) ATPase activity
[31] = Induction of apoptosis in human HEK293 cells incubated for 24 hrs by annexin V/PI staining based flow cytometry analysis; assay type: toxicity, cell-based
[32] = Induction of apoptosis in mouse BaF3 cells incubated for 24 hrs by annexin V/PI staining based flow cytometry analysis; assay type: toxicity, cell-based

## CCNCCNC1=C(C#N)C(=O)c2cccc3c(SC4CCCCC4)ccc1c23
[1]
  Ki: 0.72 µM
[2]
  inhibition: Active

## N#CC1=C(NCCC(=O)O)c2ccc(SC3CCCCC3)c3cccc(c23)C1=O
[1]
  Ki: > 20 µM
[2]
  inhibition: Active

## CCCCNC(=O)CCNC1=C(C#N)C(=O)c2cccc3c(SC4CCCCC4)ccc1c23
[1]
  Ki: 0.88 µM
[2]
  inhibition: Active

## COC(=O)CCNC1=C(C#N)C(=O)c2cccc3c(SCCO)ccc1c23
[1]
  Ki: > 20 µM
[2]
  inhibition: Active

## COC(=O)CCNC1=C(C#N)C(=O)c2cccc3c(SCCc4ccccc4)ccc1c23
[1]
  Ki: > 20 µM
[2]
  inhibition: Active

## COC(=O)CCNC1=C(C#N)C(=O)c2cccc3c(Sc4ccc(Br)cc4)ccc1c23
[1]
  Ki: 2.5 µM
[2]
  inhibition: Active

## COC(=O)CCNC1=C(C#N)C(=O)c2cccc3c(SC4CCCC4)ccc1c23
[1]
  Ki: 2.2 µM
[2]
  inhibition: Active

## COC(=O)CCNC1=C(C#N)C(=O)c2cccc3c(Sc4ccc(C)cc4)ccc1c23
[1]
  Ki: 3.4 µM
[2]
  inhibition: Active

## CCOC(=O)CN1CCN(CCNC2=C(C#N)C(=O)c3cccc4c(SC5CCCCC5)ccc2c34)CC1
[1]
  Ki: 4.1 µM
[2]
  inhibition: Active

## COC(=O)CCNC1=C(C#N)C(=O)c2cccc3c(SC4CCCCC4)ccc1c23
HEK293
  Activity: < 10%
BaF3
  Activity: < 10%
[3]
  EC50: 1.7 µM
K562 [4]
  EC50: 9.4 µM
[1]
  Ki: 2.6 µM
BV-173
  EC50: 6.1 µM
[2]
  inhibition: Active

## CN(C)CCNC1=C(C#N)C(=O)c2cccc3c(SC4CCCCC4)ccc1c23
HEK293
  Activity: > 10%
BaF3
  Activity: < 10%
[3]
  EC50: 0.45 µM
K562 [4]
  EC50: 2.4 µM
[1]
  Ki: 0.57 µM
BV-173
  EC50: 1.1 µM
[2]
  inhibition: Active

## COC(=O)CCNC1=C(C#N)C(=O)c2cccc3c(Sc4ccc(C(C)C)cc4)ccc1c23
[1]
  Ki: 16.2 µM
[2]
  inhibition: Active

## N#CC1=C(NCCN2CCN(Cc3ccccc3)CC2)c2ccc(SC3CCCCC3)c3cccc(c23)C1=O
[1]
  Ki: > 20 µM
[2]
  inhibition: Active

## CCn1c(=O)/c(=C2\Sc3ccccc3N2C)s/c1=C\c1cccc[n+]1CC
K562 [5]
  inhibition: Active

## COC(=O)CCNC1=C(C#N)C(=O)c2cccc3c(Sc4cccc(N)c4)ccc1c23
[1]
  Ki: 18.9 µM
[2]
  inhibition: Active

## N#CC1=C(NCCC(=O)NC2CCCCC2)c2ccc(SC3CCCCC3)c3cccc(c23)C1=O
[1]
  Ki: 11 µM
[2]
  inhibition: Active

## N#CC1=C(NCCC(=O)NCc2ccccc2)c2ccc(SC3CCCCC3)c3cccc(c23)C1=O
[1]
  Ki: 14.4 µM
[2]
  inhibition: Active

## N#CC1=C(NCCN2CCOCC2)c2ccc(SC3CCCCC3)c3cccc(c23)C1=O
[1]
  Ki: 1.8 µM
[2]
  inhibition: Active

## COC(=O)CCNC1=C(C#N)C(=O)c2cccc3c(Sc4ccc(C(C)(C)C)cc4)ccc1c23
[1]
  Ki: > 20 µM
[2]
  inhibition: Active

## CCN(CC)CCNC1=C(C#N)C(=O)c2cccc3c(SC4CCCCC4)ccc1c23
HEK293
  Activity: < 10%
Mus musculus [6]
  Activity: Active
[7]
  AUC(0-t) at 24 h: 12.2 µg·h/mL
[8]
  Kd: 1.58 µM
[9]
  Activity: Active
K562 [10]
  inhibition: Active
K562 [11]
  Activity: inactive
Mus musculus [12]
  Activity: Active
[13]
  Ki: 5.15 µM
K562 [14]
  inhibition: Dose-Dependent Effect
K562 [15]
  inhibition: Active
K562 [16]
  inhibition: Active
BaF3
  Activity: < 10%
[3]
  EC50: 0.34 µM
K562 [4]
  EC50: 1.3 µM
[17]
  T/C: 33.51%
Mus musculus [18]
  Activity: Active
K562 [19]
  Activity: inactive
K562 [20]
  Activity: inactive
[21]
  Activity: Non-Toxic
[22]
  clearance: 0.246 L/h/kg
[23]
  Kd: 0.21 µM
[1]
  Ki: 0.25 µM
K562 [24]
  inhibition: Active
BV-173
  EC50: 0.62 µM
K562 [25]
  Activity: inactive
[26]
  Cmax: 2.3 µg/mL
K562 [5]
  inhibition: inactive
[27]
  Ki: 2.72 µM
[28]
  Tmax: 1 h
[29]
  Kd: 3.12 µM
[30]
  half-life: 5.2 h
[2]
  IC50: 15.8 µM
  inhibition: Dose-Dependent Effect

## CCCCSc1ccc2c3c(cccc13)C(=O)C(C#N)=C2NCCC(=O)OC
[1]
  Ki: 14.5 µM
[2]
  inhibition: Active

## N#Cc1ccc(COC[C@H]2O[C@@H](n3c(NCc4ccc(Cl)c(Cl)c4)nc4c(N)ncnc43)[C@H](O)[C@@H]2O)cc1
Homo sapiens
  inhibition: Active
[3]
  EC50: 8.5 µM
K562 [4]
  EC50: 7.8 µM
[31]
  EC50 at 24 h: 7.7 µM
[1]
  Ki: > 20 µM
BV-173
  EC50: 5.8 µM
[32]
  EC50 at 24 h: 5.5 µM

## CCN(CC)CCNC1=C(C#N)C(=O)c2cccc3c(SC4CCCC4)ccc1c23
[1]
  Ki: 0.32 µM
[2]
  inhibition: Active

## COC(=O)CCNC1=C(C#N)C(=O)c2cccc3c(Sc4ccc(N)cc4)ccc1c23
[1]
  Ki: > 20 µM
[2]
  inhibition: Active

## COC(=O)CCNC1=C(C#N)C(=O)c2cccc3c(Sc4ccccc4)ccc1c23
[1]
  Ki: 4.5 µM
[2]
  inhibition: Active
